# Reference: patent US8410105B2, “Pyridazinyl amine derivatives, the use thereof in the preparation of picorna virus inhibitors” (Institute of Pharmacology and Toxicology Academy of …, priority 2005, dated 2013)
# Key:
# Rhinovirus-3(HRV-3) [1] = assay: Preventive administration: drug pre-mixed with virus, protection of HeLa cells from CPE; format: cell-based; conditions: drug 100 ng/ml, virus about 100 TCID50, 33° C., three days, FIG. 1
# Protocol: (§1) HeLa cells (self-preserved in the laboratory)
# (§2) Rhinovirus-3(HRV-3) (ATCC: VR-1113)
# Principle: the drug and the virus were pre-mixed and incubated to block the procedure of viral uncoating and invasion into cells.
# Methods: the drug at a concentration of 100 ng/ml was placed into a 12-well plate, then viral dose at TCID50 value of about 100 was added, after 0.5 h, 500,000 cells were added into each well, and incubated at 33° C. After three days, when the control group presented 100% cytopathic effect (CPE), the effects of the drug for preventing cells from being phagocytized were observed, and expressed as cell protection rate (%).
# rhinovirus = assay: Ex vivo anti-rhinovirus screening: ACh-induced tension of rabbit tracheal rings exposed to rhinovirus; conditions: for Tension, average: drug 100 μg/ml plus rhinovirus, rabbit tracheal rings
# Rhinovirus-3(HRV-3) [2] = assay: Therapeutic administration: drug added after viral infection of adherent HeLa cells, protection from CPE; format: cell-based; conditions: drug 100 ng/ml added 0.5 h after virus (about 100 TCID50), 33° C., three days, FIG. 2
# Protocol: as §1, §2
# Method: 500,000 cells were added into each well, incubated at 33° C. overnight for adherence, then viral dose at TCID50 value of about 100 was added, the culture medium was removed by absorption after 0.5 h, the drug was added into a 12-well plate at a concentration of 100 ng/ml, the total volume of the reaction system was 2 ml. After three days, when the virus control group presented 100% cytophagocytesis (CPE), the effects of the drug for preventing cells from being phagocytized were observed.
compound,measurement,setting,value
"4-{2-[4-(3,6-dichloropyridazin-4-yl)-piperazin]-1-yl)-ethoxy]-benzoic acid isopropyl ester [Example 13]","effects of the drug for preventing cells from being phagocytized, cell protection rate",Rhinovirus-3(HRV-3) [1],better effects
"Cc1cccc(C)c1OCCN1CCN(c2cc(Cl)nnc2Cl)CC1 [Example 4, 3,6-dichloro-4-{4-[2-(2,6-dimethyl-phenoxyethyl)]-piperazin-1-yl}pyridazine]","effects of the drug for preventing cells from being phagocytized, cell protection rate",Rhinovirus-3(HRV-3) [1],better effects
"CCOC(=O)c1ccc(OCCN2CCN(c3cc(Cl)nnc3Cl)CC2)nc1 [Example 31, 6-{2-[4-(3,6-dichloro-pyridazin-4-yl)-piperazin-1-yl]-ethoxy}-nicotinic acid ethyl ester]","Tension, average",rhinovirus; Ach concentration (log M) −3,1.95 g
same,"Tension, average",rhinovirus; Ach concentration (log M) −3.7,1.86 g
same,"Tension, average",rhinovirus; Ach concentration (log M) −4,1.72 g
same,"Tension, average",rhinovirus; Ach concentration (log M) −4.3,1.54 g
same,"Tension, average",rhinovirus; Ach concentration (log M) −4.7,1.30 g
same,"Tension, average",rhinovirus; Ach concentration (log M) −5,1.00 g
same,"Tension, average",rhinovirus; Ach concentration (log M) −5.3,0.73 g
same,"Tension, average",rhinovirus; Ach concentration (log M) −5.7,0.35 g
same,"Tension, average",rhinovirus; Ach concentration (log M) −6,0.11 g
same,"Tension, average",rhinovirus; Ach concentration (log M) −7,0.00 g
same,effect on the rhinovirus-caused excessive increase of Ach-induced tracheal smooth muscular tension,"rhinovirus; drug 100 μg/ml, FIG. 3",obviously inhibit the excessive increase of Ach-induced tracheal smooth muscular tension caused by rhinovirus
same,effects of the drug for preventing cells from being phagocytized,Rhinovirus-3(HRV-3) [2],better effects
same,"effects of the drug for preventing cells from being phagocytized, cell protection rate",Rhinovirus-3(HRV-3) [1],better effects
"COC(=O)c1ccc(OCCN2CCN(c3cc(Cl)nnc3Cl)CC2)nc1 [Example 32, 6-{2-[4-(3,6-dichloropyridazin-4-yl)piperazin-1-yl]-ethoxy}-nicotinic acid methyl ester]","effects of the drug for preventing cells from being phagocytized, cell protection rate",Rhinovirus-3(HRV-3) [1],better effects
